US9695155B2, “Herbicidal substituted pyrimidinyloxy benzene compounds” (E. I. DU PONT DE NEMOURS AND COMPANY, priority 2013, dated 2017)

How the values were obtained:
ragweed = assay: Test C postemergence; format: in vivo, Ambrosia elatior; conditions: for Plant response rating, Ragweed: scale 0 to 100 (0 no effect, 100 complete control)
How it was run: (§1)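 Sown in loam/sand → sprayed pre-emergence; or grown to 1–4 leaves in peat mix → sprayed post-emergence. Same solvent/surfactant formulation both ways. Greenhouse 13–15 d. Score 0–100 visual.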

velvetleaf = assay: Test C preemergence; format: in vivo, Abutilon theophrasti; conditions: preemergence
How it was run: as §1

wild oat = assay: Test C postemergence; format: in vivo, Avena fatua; conditions: for Plant response rating, Oat, Wild: scale 0 to 100 (0 no effect, 100 complete control)
How it was run: as §1

Italian ryegrass = assay: Test C postemergence; format: in vivo, Lolium multiflorum; conditions: for Plant response rating, Ryegrass, Italian: scale 0 to 100 (0 no effect, 100 complete control)
How it was run: as §1

giant foxtail = assay: Test A preemergence; format: in vivo, Setaria faberii; conditions: 0 to 100 scale where 0 is no effect and 100 is complete control
How it was run: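 Pre- and postemergence greenhouse screen. Soil: loam + sand. Spray carrier: solvent mixture, non-phytotoxic, with surfactant. Post timing at 1–2 leaves, height 2–10 cm. Readout: visual injury on a 0–100 scale roughly 10 days after application, untreated plants as reference.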

wheat, winter = assay: Test C postemergence; format: in vivo, Triticum aestivum; conditions: for Plant response rating, Wheat: scale 0 to 100 (0 no effect, 100 complete control)
How it was run: as §1

pigweed [1] = assay: Test C postemergence; format: in vivo, Amaranthus retroflexus; conditions: for Plant response rating, Pigweed: scale 0 to 100 (0 no effect, 100 complete control)
How it was run: as §1

yellow nutsedge [2] = assay: Test C postemergence; format: in vivo, Cyperus esculentus; conditions: for Plant response rating, Nutsedge, Yellow: scale 0 to 100 (0 no effect, 100 complete control)
How it was run: as §1

pigweed [3] = assay: Test C preemergence; format: in vivo, Amaranthus retroflexus; conditions: preemergence
How it was run: as §1

soybean = assay: Test C preemergence; format: in vivo, Glycine max; conditions: preemergence
How it was run: as §1

blackgrass = assay: Test C postemergence; format: in vivo, Alopecurus myosuroides; conditions: for Plant response rating, Blackgrass: scale 0 to 100 (0 no effect, 100 complete control)
How it was run: as §1

yellow nutsedge [4] = assay: Test C preemergence; format: in vivo, Cyperus esculentus; conditions: preemergence
How it was run: as §1

rice = assay: Test B flooded paddy test; format: in vivo, Oryza sativa; conditions: Flood, 250 g ai/ha; 0 to 100 scale where 0 is no effect and 100 is complete control
How it was run: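 Greenhouse flooded-pot test: compounds dosed into 3 cm standing water over 2-leaf plants, flood held constant. Rated visually after 13–15 days on 0–100 (complete control = 100); a dash marks no test result.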

lambsquarters = assay: Test C postemergence; format: in vivo, Chenopodium album; conditions: for Plant response rating, Lambsquarters: scale 0 to 100 (0 no effect, 100 complete control)
How it was run: as §1

[5] = 16 g ai/ha, postemergence, 0 is no effect, 100 is complete control
[6] = 125 g ai/ha, postemergence, visual rating
[7] = 16 g ai/ha, scale 0 to 100 (0 no effect, 100 complete control)
[8] = 62 g ai/ha, scale 0 (no effect) to 100 (complete control)
[9] = 125 g ai/ha, scale 0 (no effect) to 100 (complete control)

Cc1cnc(Oc2cccc(C#N)c2-n2cc(I)cn2)nc1 [Compound 136]
Plant response rating (0 to 100), Ragweed (ragweed; [5]): 25
Plant response rating, Ragweed (ragweed; [6]): 45
Plant response rating, Ragweed (ragweed; Postemergence, 62 g ai/ha): 45
Velvetleaf plant response rating (velvetleaf; [7]): 5
Velvetleaf plant response rating (velvetleaf; [8]): 30
Velvetleaf plant response rating (velvetleaf; [9]): 90
Plant response rating (0 to 100), Oat, Wild (wild oat; [5]): 0
Plant response rating, Oat, Wild (wild oat; [6]): 5
Plant response rating, Oat, Wild (wild oat; Postemergence, 62 g ai/ha): 5
Plant response rating (0 to 100), Ryegrass, Italian (Italian ryegrass; [5]): 0
Plant response rating, Ryegrass, Italian (Italian ryegrass; [6]): 0
Plant response rating, Ryegrass, Italian (Italian ryegrass; Postemergence, 62 g ai/ha): 0
Plant response rating, Foxtail, Giant (giant foxtail; 125 g ai/ha): 60
Foxtail, Giant plant response rating (giant foxtail; 500 g ai/ha): 100
Plant response rating (0 to 100), Wheat (wheat, winter; [5]): 0
Plant response rating, Wheat (wheat, winter; [6]): 5
Plant response rating, Wheat (wheat, winter; Postemergence, 62 g ai/ha): 5
Plant response rating (0 to 100), Pigweed (pigweed [1]; [5]): 45
Plant response rating, Pigweed (pigweed [1]; [6]): 55
Plant response rating, Pigweed (pigweed [1]; Postemergence, 62 g ai/ha): 55
Plant response rating (0 to 100), Nutsedge, Yellow (yellow nutsedge [2]; [5]): 0
Plant response rating, Nutsedge, Yellow (yellow nutsedge [2]; [6]): 10
Plant response rating, Nutsedge, Yellow (yellow nutsedge [2]; Postemergence, 62 g ai/ha): 5
Pigweed plant response rating (pigweed [3]; [7]): 0
Pigweed plant response rating (pigweed [3]; [8]): 40
Pigweed plant response rating (pigweed [3]; [9]): 100
Soybean plant response rating (soybean; [7]): 20
Soybean plant response rating (soybean; [8]): 50
Soybean plant response rating (soybean; [9]): 85
Plant response rating (0 to 100), Blackgrass (blackgrass; [5]): 0
Plant response rating, Blackgrass (blackgrass; [6]): 5
Plant response rating, Blackgrass (blackgrass; Postemergence, 31 g ai/ha, 13 to 15 days): 5
Plant response rating, Blackgrass (blackgrass; Postemergence, 62 g ai/ha): 5
Nutsedge, Yellow plant response rating (yellow nutsedge [4]; [7]): 0
Nutsedge, Yellow plant response rating (yellow nutsedge [4]; [8]): 10
Nutsedge, Yellow plant response rating (yellow nutsedge [4]; [9]): 35
Plant response rating, Rice (rice): 15
Plant response rating (0 to 100), Lambsquarters (lambsquarters; [5]): 20
Plant response rating, Lambsquarters (lambsquarters; [6]): 75
Plant response rating, Lambsquarters (lambsquarters; Postemergence, 62 g ai/ha): 60
